The source of these data is US20230127442A1, “COMPOSITIONS FOR INCREASING ETHANOL PRODUCTION AND RELATED METHODS” (KEMIN INDUSTRIES, INC., priority 2021, published 2023).

Experiment [1] relates to yeast. Kind of experiment: Corn mash fermentation with synthetic antioxidants, 24 hours at 33° C. then heat stress at 37° C. to 72 hours, ethanol by HPLC (Example 6). It counts as cell-based. The following applies: for increase in ethanol content at 24 hour compared to control: before heat stress. From the text:
(§1) Lutein (FloraGLO®): Lutein crystals were purified from marigolds and suspended in oil. Acerola extract (Fortium® A): Acerola fruit grown from Malpighia emarginata, water extract. Spearmint Extract (Neumentix®): Spearmint leaves grown from Mentha spicata L. (Kemin Industries, Inc. proprietary lines KI-MsEM0042, KI-MsEM0110), water extract. Aqueous Tea Extract (AssuriTEA® Green): Tea leaves grown from Camellia sinensis, water extract. Solvent Extracted Tea (Fortium® GT107): Tea leaves grown from Camellia sinensis and extracted with acetone and ethyl acetate, solvent extract. Rosemary Extract (Fortium® M): Rosemary leaves grown from Rosmarinus officinalis extracted with either acetone and TFE or ethanol. Mixed Tocopherols (Fortium® MT): Mixed tocopherols are extracted from vegetable oils with hexane, ethanol, and methanol. Lipid-Soluble Green Tea (GT-FORT): Tea leaves grown from Camellia sinensis and extracted with ethyl acetate, dichloromethane, and ethanol. Synthetic antioxidants: TBHQ (tert-butylhydroquinone) and BHT (butylated hydroxytoluene); tert-butlyhydroquinone was solubilized in propylene glycol and butylated hydroxytoluene was solubilized in ethanol. In alternative embodiments, the synthetic antioxidants are suspended in liquid or solubilized in liquid, including but not limited to water and organic solvents or combinations thereof.
Dry yeast was added to corn mash containing urea, protease, phytase, and glucoamylase. tert-Butylhydroquinone (0.0001, 0.001, or 0.01 mg/L) and butylated hydroxytoluene (0.0001, 0.001, or 0.01 mg/L were added to the corn mash. Corn mash containing no antioxidants was included in the experiment as a Control. The corn mash was fermented in a temperature-controlled incubator shaker for 24 hours at 33° C. Following 24 hours, the yeast in the corn mash were subjected to heat stress by increasing the temperature to 37° C. and the corn mash fermented for another 48 hours for a total fermentation time of 72 hours. Ethanol levels were measured by HPLC.

The test system of experiment [2] is yeast. Kind of experiment: Corn mash fermentation, 48 hours, heat stress at 38° C. after 24 hours, ethanol by HPLC (Example 1). It counts as cell-based. The following applies: 48 hours total, heat stress 38° C. for last 24 hours.
Source text: as §1
Dry yeast was added to corn mash containing urea, protease, phytase, and glucoamylase. Lutein, a fat-soluble antioxidant, was added to the mash at 200, 1,000, or 2,000 mg/L. Dried aqueous tea extract or spearmint extract containing antioxidants were added to the corn mash at 100, 1,000, or 5,000 mg/L. Corn mash containing no added antioxidants was included in the experiment as a control group (Control). The corn mash was fermented in a temperature-controlled incubator shaker for 24 hours at 33° C. Following 24 hours, the yeast in the corn mash were subjected to heat stress by increasing the temperature to 38° C. and the corn mash fermented for another 24 hours for a total fermentation time of 48 hours. Ethanol levels were measured by HPLC.

SMILES strings stand for the structures. Bounds are passed on as bounds.

In the case of `Cc1cc(C(C)(C)C)c(O)c(C(C)(C)C)c1` [butylated hydroxytoluene], in the experiment with yeast [1] (72 hours, following heat stress 37° C., 0.0001, 0.001 or 0.01 mg/L), the “change of ethanol content of corn mash through 72 hours compared to control” value is “slightly decreased”.

Regarding `CC1=C[C@H](O)CC(C)(C)[C@H]1/C=C/C(C)=C/C=C/C(C)=C/C=C/C=C(C)/C=C/C=C(C)/C=C/C1=C(C)C[C@@H](O)CC1(C)C` [lutein, Lutein], the results for the “increase in ethanol content of corn mash compared to Control” value in the experiment with yeast [2] (200 mg/L), in the experiment on yeast [2] (1,000 mg/L) and in the experiment with yeast [2] (2,000 mg/L) were 4%, 7% and 10%, respectively.

`CC(C)(C)c1cc(O)ccc1O` [tert-Butylhydroquinone, tert-butylhydroquinone]: the “increase in ethanol content at 24 hour compared to control” value with yeast [1] (0.0001 mg/L, first 24 hours at 33° C.) was “up to 0.4%”; in the experiment with yeast [1] (0.01 mg/L, first 24 hours at 33° C.), “up to 1.8%”. Further, the “increase in ethanol content at 72 hour compared to control” value with yeast [1] (72 hours, following heat stress 37° C., highest increase among 0.0001, 0.001 or 0.01 mg/L) is on record as at most 2.8%. Further, in the experiment on yeast [1] (first 24 hours at 33° C., FIG. 17, 0.0001, 0.001 or 0.01 mg/L), the “change of ethanol content of corn mash over the first 24 hours compared to control” value is reported as “decreased”.
